Test results published in patent publication EP0614662A1, “Use of (2E,4E,6E,10E)-3,7,11,15-tetramethyl-2,4,6,10,14-hexadecapentaenoic acid for the treatment of leukaemia” (Eisai Co., Ltd., priority 1993, dated 1994).

What was measured:
APL = details: clinical data, Blood, 72, 567 - 572 (1988); cited from earlier work
mice = details: cited from earlier work
HL-60 = assay: Cytotoxicity on HL-60 (viable cell count, Trypan Blue); type: cell-based; details: human, 5 days
Protocol: After the completion of the incubation, the total cell count was calculated with a Burker-Turk calculation board and the viable cell count was calculated by regarding the cells stained with Trypan Blue as the dead ones. Thus ID₅₀ and LD₅₀ were determined. Further, a cytospin slide was prepared and the morphology of the cells was observed by the May-Giemsa staining method.

[1] = Acute toxicity test, single dose, ICR mice; details: in vivo, Mouse (ICR)
Protocol: (§1) By using 5 female and 5 male SD rats and ICR mice aged 7 to 8 weeks, the toxicities of the compound of the present invention were tested through oral, intramuscular, subcutaneous and intraperitoneal administrations each in a single dose (medium: 5% gum arabic).

mouse papilloma = details: cited from earlier work
[2] = Acute toxicity test, single dose, SD rats; details: in vivo, Rat (SD)
Protocol: as §1

cells of APL patients = assay: Ability to induce differentiation of cells of APL patients; type: cell-based, human
Protocol: To illustrate the usefulness of the compound of the present invention as a differentiation inducer, a test example on the effects of the compound of the present invention on leukemic cells of APL patients and various cultured human leukemic cell lites will be given. The backgrounds of the patients providing the bloods employed in the test are as follows.
The cells samples from APL patients were adjusted to an initial cell count of 1 × 10⁶ cells/ml and incubated in the above-mentioned IMDM medium containing 10% of fetal calf serum for 5 days under the addition of the compound (I) or ATRA (10⁻⁶ to 10⁻⁸ mol/1), followed by the same evaluation as the one effected in the case of HL-60. Further, the ratio of mature cells to all the cells was determined in accordance with the following formula and taken as an indication for the comparison of the ability to induce differentiation: [formula]

[3] = female, ♀, oral, medium 5% gum arabic, read-out: LD₅₀ Oral
[4] = female, ip, ♀, intraperitoneal, read-out: LD₅₀ Intraperitoneal
[5] = female, sc, ♀, subcutaneous, read-out: LD₅₀ Subcutaneous
[6] = male, ♂, oral, medium 5% gum arabic, read-out: LD₅₀ Oral
[7] = male, im, ♂, intramuscular, read-out: LD₅₀ Intramuscular
[8] = male, ip, ♂, intraperitoneal, read-out: LD₅₀ Intraperitoneal
[9] = male, sc, ♂, subcutaneous, read-out: LD₅₀ Subcutaneous

CC1=C(/C=C/C(C)=C/C=C/C(C)=C/C(=O)O)C(C)(C)CCC1 [ATRA, all-trans-retinoic acid, reference compound]
healing of APL patients (APL): about 100% | hypervitaminosis A (depilation, reduction in body weight) (mice): suffered from hypervitaminosis A including depilation and reduction in body weight | ratio of the dead cells stained with Trypan Blue (HL-60): ≤ 10%

CC(C)=CCC/C(C)=C/CC/C(C)=C/C=C/C(C)=C/C(=O)O [compound (I), (2E,4E,6E,10E)-3,7,11,15-tetramethyl-2,4,6,10,14-hexadecapentaenoic acid]
LD50 [1, 3]: > 6250 mg/kg | LD50 ([1]; female, im, ♀, intramuscular, read-out: LD₅₀ Intramuscular): > 2000 mg/kg | LD50 [1, 4]: 1.1 mg/kg | LD50 [1, 5]: > 4 mg/kg | LD50 [1, 6]: > 6250 mg/kg | LD50 [1, 7]: 2 mg/kg | LD50 [1, 8]: 970 mg/kg | LD50 [1, 9]: > 4000 mg/kg | hypervitaminosis A (depilation, reduction in body weight) (mice): did not suffer from such a symptom | antitumor effect (mouse papilloma): exerts an antitumor effect | LD50 [2, 3]: 2850 mg/kg | LD50 [2, 4]: 680 mg/kg | LD50 [2, 5]: 2800 mg/kg | LD50 [2, 6]: 2400 mg/kg | LD50 [2, 7]: 830 mg/kg | LD50 [2, 8]: 731 mg/kg | LD50 [2, 9]: 2500 mg/kg | ratio of the dead cells stained with Trypan Blue (HL-60): ≤ 10% | effect of inducing differentiation (cells of APL patients; 5 days incubation, 10⁻⁶ to 10⁻⁸ mol/l): exhibited an effect of inducing differentiation similar to ATRA | efficacy on cells having a fused gene PML-RAR-α (cells of APL patients; PML/RAR-α (+)): effective in all of the cases
